Measurements reported in ChEMBL document CHEMBL4406840, “Design and synthesis of novel artemisinin derivatives with potent activities against colorectal cancer in vitro and in vivo” (Eur J Med Chem, 2019).
Activity calls are given as the source filed them. No cut-off for these calls is given here.

Tests used:
WM 266-4 = assay: cells; type: functional, cell-based; details: Homo sapiens, WM 266-4, 48 h
Description: Antiproliferative activity against human WM266.4 cells assessed as inhibition of cell viability after 48 hrs by MTS assay

HCT-116 [1] = assay: cells; type: functional, cell-based; details: Homo sapiens, HCT-116, 48 h
Description: Antiproliferative activity against human HCT116 cells assessed as inhibition of cell viability after 48 hrs by MTS assay

HCT-116 [2] = assay: Antitumour activity against human HCT116 cells xenografted in BALB/c nude mouse assessed as tumour shrunken at 2.5 to 5 mg/kg, ip administered daily for 18 days started from 2 days after tumor cell inoculation by digital caliper method; type: functional, organism-based
HCT-116 [3] = assay: Antitumour activity against human HCT116 cells xenografted in BALB/c nude mouse assessed as delay in tumour growth at 2.5 to 5 mg/kg, ip administered daily for 18 days started from 2 days after tumor cell inoculation by digital caliper method; type: functional, organism-based
[4] = Toxicity in BALB/c nude mouse xenografted with human HCT116 cells assessed as effect on body weight at 2.5 to 5 mg/kg, ip administered daily for 18 days; type: organism-based; details: in vivo, 432 h
HCT-116 [5] = details: Homo sapiens, at 10 mg/kg
Description: Antitumour activity against human HCT116 cells xenografted in BALB/c nude mouse assessed as reduction in tumour growth at 10 mg/kg, ip administered daily for 18 days started from 2 days after tumor cell inoculation by digital caliper method

HCT-116 [6] = assay: Potency index, ratio of dihydroartemisinin IC50 to compound IC50 for antiproliferative activity against human HCT116 cells by MTS assay; type: functional

Row | Structure (SMILES) | IC50 (WM 266-4) | IC50 (HCT-116 [1]) | further results
1 | C[C@H]1[C@H](OC(=O)CCC(=O)OCc2ccc3ncnc(Nc4ccc(F)c(Cl)c4)c3c2)O[C@@H]2O[C@@]3(C)CC[C@H]4[C@H](C)CC[C@@H]1[C@@]24OO3 | 10.2 µM | 0.18 µM | –
2 | C[C@H]1[C@H](OCCCCCOc2ccc3ncnc(Nc4ccc(F)c(Cl)c4)c3c2)O[C@@H]2O[C@@]3(C)CC[C@H]4[C@H](C)CC[C@@H]1[C@@]24OO3 | 5.7 µM | 0.35 µM | –
3 | C[C@H]1[C@H](NC(=O)CCCC(=O)OCc2ccc3ncnc(Nc4ccc(F)c(Cl)c4)c3c2)O[C@@H]2O[C@@]3(C)CC[C@H]4[C@H](C)CC[C@@H]1[C@@]24OO3 | 15.3 µM | 5.56 µM | –
4 | C[C@H]1[C@@H](OCCCOCc2ccc3ncnc(Nc4ccc(F)c(Cl)c4)c3c2)O[C@@H]2O[C@@]3(C)CC[C@H]4[C@H](C)CC[C@@H]1[C@@]24OO3 | 5.18 µM | 2.11 µM | –
5 | CC(=O)N(c1ccc(F)c(Cl)c1)c1ncnc2ccc(COC(=O)CCCC(=O)O[C@@H]3O[C@@H]4O[C@@]5(C)CC[C@H]6[C@H](C)CC[C@@H]([C@H]3C)[C@@]46OO5)cc12 | 15 µM | 0.78 µM | –
6 | C[C@H]1[C@@H](OCc2ccc3ncnc(Nc4ccc(F)c(Cl)c4)c3c2)O[C@@H]2O[C@@]3(C)CC[C@H]4[C@H](C)CC[C@@H]1[C@@]24OO3 | 10.8 µM | 0.29 µM | –
7 | C[C@H]1[C@H](OC[C@H](NC(=O)c2ccc3ncnc(Nc4ccc(F)c(Cl)c4)c3c2)c2ccccc2)O[C@@H]2O[C@@]3(C)CC[C@H]4[C@H](C)CC[C@@H]1[C@@]24OO3 | 6.67 µM | 0.11 µM | Activity (HCT-116 [2]): Active; inhibition (HCT-116 [3]): Active; Activity [4]: Non-Toxic
8 | CC(=O)O[C@H]1C(=O)[C@@]2(C)[C@H]([C@H](OC(=O)c3ccccc3)[C@]3(O)C[C@H](OC(=O)[C@H](O)[C@@H](NC(=O)c4ccccc4)c4ccccc4)C(C)=C1C3(C)C)[C@]1(OC(C)=O)CO[C@@H]1C[C@@H]2O [PACLITAXEL] | 0.00032 µM | – | –
9 | C[C@H]1[C@H](OC(=O)CCCC(=O)OCc2ccc3ncnc(Nc4ccc(F)c(Cl)c4)c3c2)O[C@@H]2O[C@@]3(C)CC[C@H]4[C@H](C)CC[C@@H]1[C@@]24OO3 | 11.4 µM | 0.29 µM | –
10 | CC(=O)N(c1ccc(F)c(Cl)c1)c1ncnc2ccc(COC(=O)CCCCC(=O)O[C@@H]3O[C@@H]4O[C@@]5(C)CC[C@H]6[C@H](C)CC[C@@H]([C@H]3C)[C@@]46OO5)cc12 | 18.8 µM | 0.66 µM | –
11 | C[C@H]1[C@H](OC(=O)CCCCC(=O)OCc2ccc3ncnc(Nc4ccc(F)c(Cl)c4)c3c2)O[C@@H]2O[C@@]3(C)CC[C@H]4[C@H](C)CC[C@@H]1[C@@]24OO3 | 3.51 µM | 0.31 µM | –
12 | C[C@H]1[C@H](NC(=O)CCC(=O)OCc2ccc3ncnc(Nc4ccc(F)c(Cl)c4)c3c2)O[C@@H]2O[C@@]3(C)CC[C@H]4[C@H](C)CC[C@@H]1[C@@]24OO3 | 9.88 µM | 2.78 µM | –
13 | CC(=O)N(c1ccc(F)c(Cl)c1)c1ncnc2ccc(COC(=O)CCC(=O)O[C@@H]3O[C@@H]4O[C@@]5(C)CC[C@H]6[C@H](C)CC[C@@H]([C@H]3C)[C@@]46OO5)cc12 | 9.29 µM | 0.28 µM | –
14 | C[C@H]1[C@H](OC(=O)CCC(=O)O)O[C@@H]2O[C@@]3(C)CC[C@H]4[C@H](C)CC[C@@H]1[C@@]24OO3 [ARTESUNATE] | 8.46 µM | 0.89 µM | –
15 | C[C@@H]1CC[C@H]2[C@@H](C)C(O[C@@H](C(=O)OCc3ccc4ncnc(Nc5ccc(F)c(Cl)c5)c4c3)c3ccccc3)O[C@@H]3O[C@@]4(C)CC[C@@H]1[C@]32OO4 (stereo partly drawn) | – | 0.68 µM | –
16 | C[C@H]1[C@H](OCCCCOCc2ccc3ncnc(Nc4ccc(F)c(Cl)c4)c3c2)O[C@@H]2O[C@@]3(C)CC[C@H]4[C@H](C)CC[C@@H]1[C@@]24OO3 | 12.6 µM | 2.42 µM | –
17 | C[C@H]1[C@H](O)O[C@@H]2O[C@@]3(C)CC[C@H]4[C@H](C)CC[C@@H]1[C@@]24OO3 | > 40 µM | 2.85 µM | inhibition (HCT-116 [5]): Active
18 | CC(=O)N(c1ccc(F)c(Cl)c1)c1ncnc2ccc(COC(=O)CCCC(=O)N[C@@H]3O[C@@H]4O[C@@]5(C)CC[C@H]6[C@H](C)CC[C@@H]([C@H]3C)[C@@]46OO5)cc12 | 5.08 µM | 5.35 µM | –
19 | C[C@H]1[C@H](OCCCOCc2ccc3ncnc(Nc4ccc(F)c(Cl)c4)c3c2)O[C@@H]2O[C@@]3(C)CC[C@H]4[C@H](C)CC[C@@H]1[C@@]24OO3 | 15.8 µM | 6.54 µM | –
20 | O=C(O)c1ccc2ncnc(Nc3ccc(F)c(Cl)c3)c2c1 | > 40 µM | > 40 µM | –
21 | C[C@H]1[C@@H](OCCCCOCc2ccc3ncnc(Nc4ccc(F)c(Cl)c4)c3c2)O[C@@H]2O[C@@]3(C)CC[C@H]4[C@H](C)CC[C@@H]1[C@@]24OO3 | 3.81 µM | 0.36 µM | –
22 | C[C@H]1[C@H](NC(=O)CCCCC(=O)OCc2ccc3ncnc(Nc4ccc(F)c(Cl)c4)c3c2)O[C@@H]2O[C@@]3(C)CC[C@H]4[C@H](C)CC[C@@H]1[C@@]24OO3 | 25.3 µM | 5.68 µM | –
23 | C[C@H]1[C@H](OC[C@H](N)c2ccccc2)O[C@@H]2O[C@@]3(C)CC[C@H]4[C@H](C)CC[C@@H]1[C@@]24OO3 | 15.1 µM | 16.2 µM | –
24 | C[C@H]1[C@@H](OCCCCCOc2ccc3ncnc(Nc4ccc(F)c(Cl)c4)c3c2)O[C@@H]2O[C@@]3(C)CC[C@H]4[C@H](C)CC[C@@H]1[C@@]24OO3 | 2.91 µM | 0.24 µM | Ratio IC50 (HCT-116 [6]): 10
25 | CC(=O)N(c1ccc(F)c(Cl)c1)c1ncnc2ccc(COC(=O)CCCCC(=O)N[C@@H]3O[C@@H]4O[C@@]5(C)CC[C@H]6[C@H](C)CC[C@@H]([C@H]3C)[C@@]46OO5)cc12 | 27.8 µM | 11.8 µM | –
26 | C[C@@H]1CC[C@H]2[C@@H](C)C(O[C@H](C(=O)OCc3ccc4ncnc(Nc5ccc(F)c(Cl)c5)c4c3)c3ccccc3)O[C@@H]3O[C@@]4(C)CC[C@@H]1[C@]32OO4 (stereo partly drawn) | – | 0.89 µM | –
27 | C[C@H]1[C@H](OCc2ccc3ncnc(Nc4ccc(F)c(Cl)c4)c3c2)O[C@@H]2O[C@@]3(C)CC[C@H]4[C@H](C)CC[C@@H]1[C@@]24OO3 | 4.56 µM | 0.42 µM | –
28 | CC(=O)N(c1ccc(F)c(Cl)c1)c1ncnc2ccc(COC(=O)CCC(=O)N[C@@H]3O[C@@H]4O[C@@]5(C)CC[C@H]6[C@H](C)CC[C@@H]([C@H]3C)[C@@]46OO5)cc12 | 15.4 µM | 12.9 µM | –
